{"source": "paper PMC2734176", "about": "“The Aurora Kinase in Trypanosoma brucei Plays Distinctive Roles in Metaphase-Anaphase Transition and Cytokinetic Initiation” (PLoS Pathogens, 2009)", "target": "T1, TbAUK1 (recombinant GST-tagged TbAUK1) (Trypanosoma brucei, UniProt Q384J7)", "T1 construct": "gene AUK1; no tag cleavage mentioned; tested without TbCPC1/TbCPC2", "T1 sequence (Q384J7 1-309)": "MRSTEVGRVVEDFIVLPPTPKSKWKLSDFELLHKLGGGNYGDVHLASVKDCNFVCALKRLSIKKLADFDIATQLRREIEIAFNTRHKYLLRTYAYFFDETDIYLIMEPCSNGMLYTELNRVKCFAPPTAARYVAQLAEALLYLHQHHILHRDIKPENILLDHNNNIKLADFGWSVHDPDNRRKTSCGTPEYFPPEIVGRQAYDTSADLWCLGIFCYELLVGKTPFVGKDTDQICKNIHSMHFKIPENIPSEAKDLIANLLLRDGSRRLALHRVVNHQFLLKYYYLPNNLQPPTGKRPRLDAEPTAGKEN", "experiment": "in vitro kinase assay, […] phosphorylation of GST-histone H3, SDS-PAGE and Phosphor-Imager", "type": "biochemical", "data": [{"compound": "Cc1cc(Nc2cc(N3CCN(C)CC3)nc(Sc3ccc(NC(=O)C4CC4)cc3)n2)[nH]n1", "note": "[VX-680]", "values": [{"measurement": "IC50", "result": 190, "unit": "nM"}]}]}
